The source of these data is patent US6414147B1, “2-amino-9-alkylpurines: GABA brain receptor ligands” (Neurogen Corporation, priority 1998, dated 2002).

Bounds are passed on as bounds.

One may read the melting point as the temperature of the solid-liquid transition. Compound `CCCCn1cnc2c(OC)nc(Nc3ccc(OCC)nc3)nc21` [compound 1, 2-[(2-Ethoxypyrid-5-yl)amino]-6-methoxy-9-butyl-9H-purine] yielded a melting point of 174 to 176 °C. The value for `CCCCn1cnc2c(OC)nc(Nc3ccccc3)nc21` [compound 2, 2-(Phenylamino)-6-methoxy-9-butyl-9H-purine] was 172 to 174 °C; that for `CCCCn1cnc2c(OCC)nc(Nc3ccccc3)nc21` [compound 3, 2-(Phenylamino)-6-ethoxy-9-butyl-9H-purine] was 159 to 160 °C; that for `CCCCn1cnc2c(OCCC)nc(Nc3ccccc3)nc21` [compound 4, 2-(Phenylamino)-6-propoxy-9-butyl-9H-purine] was 115 to 116 °C. With `CCCCn1cnc2c(OC(C)C)nc(Nc3ccccc3)nc21` [compound 5, 2-(Phenylamino)-6-isopropoxy-9-butyl-9H-purine] the figure was 116 to 118 °C; with `CCCCn1cnc2c(OCC(C)C)nc(Nc3ccccc3)nc21` [compound 6, 2-(Phenylamino)-6-(2-methylprop-1-oxy)-9-butyl-9H-purine], 77 to 79 °C; with `CCCCn1cnc2c(OCC(F)(F)F)nc(Nc3ccccc3)nc21` [compound 7, 2-(Phenylamino)-6-(2,2,2-trifluoroethoxy)-9-butyl-9H-purine], 102 to 104 °C. The value for `CCCCn1cnc2c(SCC)nc(Nc3ccccc3)nc21` [compound 8, 2-(Phenylamino)-6-(ethylthio)-9-butyl-9H-purine] was 173 to 175 °C; that for `CCCCn1cnc2c(OCC3CC3)nc(Nc3ccccc3)nc21` [compound 9, 2-(Phenylamino)-6-(cyclopropylmethoxy)-9-butyl-9H-purine] was 124 to 126 °C; that for `CCCCn1cnc2c(OCCOC)nc(Nc3ccccc3)nc21` [compound 10, 2-(Phenylamino)-6-(2-methoxyethoxy)-9-butyl-9H-purine] was 129 to 131 °C.

With `CCCCn1cnc2c(OCCOCC)nc(Nc3ccccc3)nc21` [compound 11, 2-(Phenylamino)-6-(2-ethoxyethoxy)-9-butyl-9H-purine], the melting point was 135 to 137 °C. On to `CCCCn1cnc2c(OCCO)nc(Nc3ccccc3)nc21` [compound 12, 2-(Phenylamino)-6-(2-hydroxyethoxy)-9-butyl-9H-purine], for which the melting point lay within 108 to 110 °C. `CCCCn1cnc2c(OC(C)COC)nc(Nc3ccccc3)nc21` (stereo not drawn) [compound 13, 2-(Phenylamino)-6-(1-methyl-2-methoxyethoxy)-9-butyl-9H-purine] had a melting point of 96 to 98 °C. With `CCCCn1cnc2c(OCc3ccccc3)nc(Nc3ccccc3)nc21` [compound 14, 2-(Phenylamino)-6-benzyloxy-9-butyl-9H-purine] the figure was 163 to 164 °C. For `CCCCn1cnc2c(OCc3ccccn3)nc(Nc3ccccc3)nc21` [compound 15, 2-(Phenylamino)-6-(pyrid-2-ylmethoxy)-9-butyl-9H-purine], the melting point was 136 to 138 °C.

`CCCCn1cnc2c(OCc3cccnc3)nc(Nc3ccccc3)nc21` [compound 16, 2-(Phenylamino)-6-(pyrid-3-ylmethoxy)-9-butyl-9H-purine] registered a melting point of 206 to 207 °C. With `CCCCn1cnc2c(OCc3ccncc3)nc(Nc3ccccc3)nc21` [compound 17, 2-(Phenylamino)-6-(pyrid-4-ylmethoxy)-9-butyl-9H-purine] the figure was 136 to 139 °C.

With `CCCCn1cnc2c(OCc3cccs3)nc(Nc3ccccc3)nc21` [compound 18, 2-(Phenylamino)-6-(thien-2-ylmethoxy)-9-butyl-9H-purine], the melting point was 170 to 172 °C. The value for `CCCCn1cnc2c(Oc3ccccc3)nc(Nc3ccccc3)nc21` [compound 19, 2-(Phenylamino)-6-phenoxy-9-butyl-9H-purine] was 124 to 125 °C; that for `COc1nc(Nc2ccccc2)nc2c1ncn2CCCO` [compound 21, 2-(Phenylamino)-6-methoxy-9-(3-hydroxypropyl)-9H-purine] was 90 to 94 °C. `CCCCCn1cnc2c(OCC)nc(Nc3ccccc3)nc21` [compound 22, 2-(Phenylamino)-6-ethoxy-9-pentyl-9H-purine] displayed a melting point of 174 to 176 °C. For `CCCCCCn1cnc2c(OC)nc(Nc3ccccc3)nc21` [compound 23, 2-(Phenylamino)-6-methoxy-9-hexyl-9H-purine], the melting point was 158 to 160 °C. With `COc1nc(Nc2ccccc2)nc2c1ncn2CCC(C)C` [compound 24, 2-(Phenylamino)-6-methoxy-9-(3-methylbutyl)-9H-purine] the figure was 167 to 169 °C. As for `COc1nc(Nc2ccccc2)nc2c1ncn2Cc1ccccc1` [compound 25, 2-(Phenylamino)-6-methoxy-9-benzyl-9H-purine], the melting point fell in the range of 165 to 167 °C. The value for `CCCCn1cnc2c(OC)nc(Nc3ccc(F)cc3)nc21` [compound 27, 2-[(4-Fluorophenyl)amino]-6-methoxy-9-butyl-9H-purine] was 185 to 187 °C; that for `CCCCn1cnc2c(OCCOC)nc(Nc3ccc(F)cc3)nc21` [compound 28, 2-[(4-Fluorophenyl)amino]-6-(2-methoxyethoxy)-9-butyl-9h-purine] was 165 to 166 °C; that for `CCCCn1cnc2c(OCCOC(C)C)nc(Nc3ccc(F)cc3)nc21` [compound 29, 2-[(4-Fluorophenyl)amino]-6-(2-isopropoxyethoxy)-9-butyl-9H-purine] was 116 to 118 °C. On to `CCCCn1cnc2c(OCCOCCC)nc(Nc3ccc(F)cc3)nc21` [compound 30, 2-[(4-Fluorophenyl)amino]-6-(2-prop-1-oxyethoxy)-9-butyl-9H-purine], for which the melting point is 149 to 150 °C. The value for `CCCCn1cnc2c(OCCCOCC)nc(Nc3ccc(F)cc3)nc21` [compound 31, 2-[(4-Fluorophenyl)amino]-6-(3-ethoxyprop-1-oxy)-9-butyl-9H-purine] was 95 to 97 °C. With `CCCCn1cnc2c(OCCC(C)C)nc(Nc3ccc(F)cc3)nc21` [compound 32, 2-[(4-Fluorophenyl)amino]-6-(3-methylbut-1-oxy)-9-butyl-9H-purine] the figure was 88 to 90 °C; with `CCCCn1cnc2c(Oc3ccccc3)nc(Nc3ccc(F)cc3)nc21` [compound 33, 2-[(4-Fluorophenyl)amino]-6-phenoxy-9-butyl-9H-purine], 171 to 172 °C. With `CCCCn1cnc2c(Oc3ccccc3F)nc(Nc3ccc(F)cc3)nc21` [compound 34, 2-[(4-Fluorophenyl)amino]-6-(2-fluorophenoxy)-9-butyl-9H-purine] the figure was 155 to 157 °C; with `CCCCn1cnc2c(Oc3cccc(OC)c3)nc(Nc3ccc(F)cc3)nc21` [compound 35, 2-[(4-Fluorophenyl)amino]-6-(3-methoxyphenoxy)-9-butyl-9H-purine], 185 to 187 °C; with `CCCCn1cnc2c(Oc3ccc(OCC)cc3)nc(Nc3ccc(F)cc3)nc21` [compound 36, 2-[(4-Fluorophenyl)amino]-6-(4-ethoxyphenoxy)-9-butyl-9H-purine], 138 to 140 °C. With `CCCCn1cnc2c(Oc3cccnc3)nc(Nc3ccc(F)cc3)nc21.CS(=O)(=O)O` [compound 37, 2-[(4-Fluorophenyl)amino]-6-(pyrid-3-yloxy)-9-butyl-9H-purine methanesulfonate], the melting point is > 300 °C.

Take `CCCCn1cnc2c(OC)nc(Nc3ccc(OC)cc3)nc21` [compound 39, 2-[(4-Methoxyphenyl)amino]-6-methoxy-9-butyl-9H-purine]: the melting point lay in the range of 158 to 160 °C.

As for `CCCCn1cnc2c(OC)nc(Nc3ccc(OCC)cc3)nc21` [compound 40, 2-[(4-Ethoxyphenyl)amino]-6-methoxy-9-butyl-9H-purine], the melting point lay in the range of 171 to 172 °C. Compound `CCCCn1cnc2c(OCC)nc(Nc3ccc(Cl)cc3)nc21` [compound 43, 2-[(4-Chlorophenyl)amino]-6-ethoxy-9-butyl-9H-purine] showed a melting point of 164 °C. With `CCCCn1cnc2c(OC)nc(Nc3ccccc3OC)nc21` [compound 44, 2-[(2-Methoxyphenyl)amino]-6-methoxy-9-butyl-9H-purine] the figure was 101 to 103 °C; with `CCCCn1cnc2c(OC)nc(Nc3ccccc3OCC)nc21` [compound 45, 2-[(2-Ethoxyphenyl)amino]-6-methoxy-9-butyl-9H-purine], 77 to 79 °C; with `CCCCn1cnc2c(OC)nc(Nc3ccccc3C)nc21` [compound 46, 2-[(2-Methylphenyl)amino]-6-methoxy-9-butyl-9H-purine], 91 to 93 °C. With `CCCCn1cnc2c(OC)nc(Nc3ccc(OC)cc3OC)nc21` [compound 47, 2-[(2,4-Dimethoxyphenyl)amino]-6-methoxy-9-butyl-9H-purine] the figure was 104 to 106 °C; with `CCCCn1cnc2c(OCC)nc(Nc3ccc(OC)cc3OC)nc21` [compound 48, 2-[(2,4-Dimethoxyphenyl)amino]-6-ethoxy-9-butyl-9H-purine], 86 to 88 °C; with `CCCCn1cnc2c(OCCOC)nc(Nc3ccc(OC)cc3OC)nc21` [compound 49, 2-[(2,4-Dimethoxyphenyl)amino]-6-(2-methoxyethoxy)-9-butyl-9H-purine], 88 to 89 °C. With `CCCCn1cnc2c(Oc3ccccc3)nc(Nc3ccc(OC)cc3OC)nc21` [compound 50, 2-[(2,4-Dimethoxyphenyl)amino]-6-phenoxy-9-butyl-9H-purine] the figure was 129 to 131 °C. With `CCCCn1cnc2c(OCC)nc(Nc3ccc(C)cc3C)nc21` [compound 51, 2-[(2,4-Dimethylphenyl)amino]-6-ethoxy-9-butyl-9H-purine], the melting point is 97 to 99 °C. With `CCCCn1cnc2c(OC)nc(Nc3ccc(OC)c(OC)c3)nc21` [compound 52, 2-[(3,4-Dimethoxyphenyl)amino]-6-methoxy-9-butyl-9H-purine] the figure was 160 to 162 °C; with `CCCCn1cnc2c(OC)nc(Nc3ccc(OC)c(F)c3)nc21` [compound 53, 2-[(3-Fluoro-4-methoxyphenyl)amino]-6-methoxy-9-butyl-9H-purine], 178 to 179 °C.
